Measured values taken from patent US20050032882A1, “Botanical extract compositions and methods of use” (priority 2002, published 2005).
Converted amounts (≈) assume the structure as drawn.

Columns and labels:
[1] = target: T1, COX-2 (Ovis aries, UniProt P79208); assay: ovine COX-2 Inhibitor Screening Assay (Cayman, prostaglandin immunoassay); type: biochemical; conditions: ovine COX-2, arachidonic acid substrate; read-out: IC50 COX-2 inhibition
T1 construct: purchased Cayman Chemical 760101
T1 sequence (P79208 17-603): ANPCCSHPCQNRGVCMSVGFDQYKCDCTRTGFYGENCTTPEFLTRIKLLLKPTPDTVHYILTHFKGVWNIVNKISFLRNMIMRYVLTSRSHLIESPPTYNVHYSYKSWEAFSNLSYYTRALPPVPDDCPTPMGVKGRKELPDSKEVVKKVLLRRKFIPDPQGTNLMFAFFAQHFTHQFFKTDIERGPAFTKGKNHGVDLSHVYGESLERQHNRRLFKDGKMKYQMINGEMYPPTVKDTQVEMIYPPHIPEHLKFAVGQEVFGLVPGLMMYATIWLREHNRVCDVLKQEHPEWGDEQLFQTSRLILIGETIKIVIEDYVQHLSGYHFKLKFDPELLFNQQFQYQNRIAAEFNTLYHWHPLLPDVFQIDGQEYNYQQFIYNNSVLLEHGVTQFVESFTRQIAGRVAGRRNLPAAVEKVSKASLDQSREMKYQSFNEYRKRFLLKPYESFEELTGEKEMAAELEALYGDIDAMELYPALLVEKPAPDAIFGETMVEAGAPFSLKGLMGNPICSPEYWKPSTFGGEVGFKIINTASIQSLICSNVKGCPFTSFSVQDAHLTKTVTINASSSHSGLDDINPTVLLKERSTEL
Method: This immunoassay uses an antibody to that binds all major prostaglandins to measure quantitatively the amount of PGF2α produced in the COX reaction using arachidonic acid as a substrate. The final volume of the reactions as described below is typically 1.15 ml. In brief, COX-1 or COX-2 (e.g., 20 μl of a solution of from 1 to 100 units/ml COX, where a unit is defined as the amount of enzyme that consumes one nanomole of oxygen per minute at 37° C. in 0.1 M Tris-HCl buffer, pH 8.0 containing 100 μM arachidonate, 5 mM EDTA, 2 mM phenol and 1 μM hematin) is first mixed with a buffer (e.g., 0.1 M Tris, pH 8.0, 5 mM EDTA, 2 mM phenol) and heme (e.g., 10 μl of 10 mM heme) in a microfuge tube. The heme is a cofactor for COX that provides maximal activity in the assay. […] The prostaglandin produced in the reactions is typically quantified using an enzyme immunoassay.
The enzyme immunoassay to detect prostaglandin can conveniently be performed in a 96 well plate using an antibody to detect prostaglandin. As controls, prostaglandin standards and COX 100% activity samples (no inhibitor) can be measured. […] When ready to develop the plate, the reactions are first washed and then incubated with 200 μl of Ellman's reagent for 60 minutes or so. The plate can be read at 405 to 420 nm on a plate reader. […]

[2] = test system: LNCaP (androgen-dependent) prostate cancer cells; assay: MTT cell viability assay, LNCaP prostate cancer cells; type: cell-based; conditions: concentration giving 50% inhibition of cancer cell growth, 72 hours, linear interpolation
From the text: (§1) Cancer cell lines: LNCaP, DU-145, and MCF-7 cells were purchased from the American Type Culture Collection. […] Cells were maintained in RPMI 1640 culture media supplemented with 10% heat-inactivated FBS, 5 millimolar glutamine, 50 units/milliliter of penicillin G, and 50 […] of streptomycin. The cells were routinely seeded at 1×10^5 cells/milliliter in T-75 flasks, allowed to attach overnight, then treated with the herbal extract. At different times, cells were harvested by trypsinization. […] The assay reagents were purchased from Boehringer Mannheim (Roche Diagnosis Corp, Indianapolis, Ind.). […] The protocol for the cell viability assay was provided by the manufacturer and modified in our laboratory as described below. […] After 24 hours, 20 microliter aliquots of the compounds at various concentrations were added to the attached cells. […] The plates were incubated at 37° C. in a CO2 incubator for 72 hours. At the end of day 3 (after 72 hours), the culture medium was carefully removed without disturbing the cells and replaced by 100 microliters of fresh cell medium.

[3] = test system: DU-145 (androgen-independent) prostate cancer cells; assay: MTT cell viability assay, DU-145 prostate cancer cells; type: cell-based; conditions: concentration giving 50% inhibition of cancer cell growth, 72 hours, linear interpolation
From the text: as §1

[4] = test system: LNCaP cells; assay: LNCaP cell cycle by DNA content flow cytometry; type: cell-based; conditions: LNCaP cells exposed 24-48 hours, DAPI DNA content flow cytometry
Method: The cells were washed with phosphate buffered saline (PBS) and fixed in ice-cold 70% ethanol. […] ([…]. Juan, […]. Chen, F. Traganos and Z. Darzynkiewicz, “Apoptosis and Cell Cycle Effects Induced by Extracts of the Chinese Herbal Preparation of PC SPES”, International J. of Oncology (1997), 11: 437-448). The cellular DNA content was measured with an ELITE ESP flow cytometer (Coulter Inc., Fl.) using UV laser illumination. The multicycle program was used to deconvolute the DNA frequency histograms to estimate the frequency of cells in different phases of the cell cycle. […] Similar measurements were conducted for isoliquiritigenin.

[5] = test system: PTX 10 (taxol resistant ovarian cancer cell line); assay: MTT cell viability assay, PTX 10 taxol-resistant ovarian cancer cells; type: cell-based; conditions: protocol as Example 1
From the text: Cancer cell lines: LNCaP, DU-145, and MCF-7 cells were purchased from the American Type Culture Collection. PTX 10, a taxol-resistant ovarian cancer cell line, was obtained from the Brander Cancer Research Laboratory, New York Medical College. Cells were maintained in RPMI 1640 culture media supplemented with 10% heat-inactivated FBS, 5 millimolar glutamine, 50 units/milliliter of penicillin G, and 50 […] of streptomycin. The cells were routinely seeded at 1×10^5 cells/milliliter in T-75 flasks, allowed to attach overnight, then treated with the herbal extract. At different times, cells were harvested by trypsinization.
The assay reagents were purchased from Boehringer Mannheim (Roche Diagnosis Corp, Indianapolis, Ind.). […] The protocol for the cell viability assay was provided by the manufacturer and modified in our laboratory as described below.
After 24 hours, 20 microliter aliquots of the compounds at various concentrations were added to the attached cells. […] The plates were incubated at 37° C. in a CO2 incubator for 72 hours. At the end of day 3 (after 72 hours), the culture medium was carefully removed without disturbing the cells and replaced by 100 microliters of fresh cell medium.

[6] = test system: MCF-7 breast cancer cells; assay: MTT cell viability assay, MCF-7 breast cancer cells; type: cell-based; conditions: concentration giving 50% inhibition of cancer cell growth, 72 hours, linear interpolation
From the text: Cancer cell lines: LNCaP, DU-145, and MCF-7 cells were purchased from the American Type Culture Collection. […] Cells were maintained in RPMI 1640 culture media supplemented with 10% heat-inactivated FBS, 5 millimolar glutamine, 50 units/milliliter of penicillin G, and 50 […] of streptomycin. The cells were routinely seeded at 1×10^5 cells/milliliter in T-75 flasks, allowed to attach overnight, then treated with the herbal extract. At different times, cells were harvested by trypsinization. […] The assay reagents were purchased from Boehringer Mannheim (Roche Diagnosis Corp, Indianapolis, Ind.). […] The protocol for the cell viability assay was provided by the manufacturer and modified in our laboratory as described below. CSO-0001-P […] After 24 hours, 20 microliter aliquots of the compounds at various concentrations were added to the attached cells. […] The plates were incubated at 37° C. in a CO2 incubator for 72 hours. […] The plate was allowed to stand overnight in the CO2 incubator and read by an ELISA Reader (EL800, Bio-Tek Instruments, Inc.) at a wavelength of 570 nm. The percent cell viability was calculated according to the equation below: [formula] where V is the percent cell viability, Acontrol is the absorption of the control cells, and Atreated is the absorption of the treated cells. […]

[7] = test system: DU-145 cells; assay: DU-145 cell cycle by DNA content flow cytometry; type: cell-based; conditions: protocol of Example 3
Method: The cells were washed with phosphate buffered saline (PBS) and fixed in ice-cold 70% ethanol. […] ([…]. Juan, […]. Chen, F. Traganos and Z. Darzynkiewicz, “Apoptosis and Cell Cycle Effects Induced by Extracts of the Chinese Herbal Preparation of PC SPES”, International J. of Oncology (1997), 11: 437-448). The cellular DNA content was measured with an ELITE ESP flow cytometer (Coulter Inc., Fl.) using UV laser illumination. The multicycle program was used to deconvolute the DNA frequency histograms to estimate the frequency of cells in different phases of the cell cycle.

SMILES	IC50 [1]	ED50 from MTT assay, LNCaP [2]	ED50 from MTT assay, DU145 [3]	effect on LNCaP cell cycle phases (G1, S, G2M) [4]	ED50 PTX 10 (taxol resistant ovarian cancer cell) [5]	ED50 from MTT assay, MCF7 [6]	effect on DU-145 cell cycle phases [7]
O=C(/C=C/c1ccc(O)cc1)c1ccc(O)cc1O [Isoliquiritigenin, 2′,4,4′-trihydroxychalcone]	10.5 µM	3.51 µg/mL (≈ 13.7 µM)	7.60 µg/mL (≈ 29.7 µM)	induced a G2M phase arrest	3.32 µg/mL (≈ 13 µM)	3.25 µg/mL (≈ 12.7 µM)	
COc1c(O)cc(O)c2c(=O)cc(-c3ccccc3)oc12 [Wogonin, 5,7-dihydroxy-8-methoxy-flavone]				induced a G1 phase arrest			prolonged the G2M phase
